Test results: patent publication US6825199B2, “7-Substituted quinazolin-2,4-diones useful as antibacterial agents” (Warner-Lambert Company, priority 1997, dated 2004)
pIC50: −log10 of the molar value. ≈ marks a conversion by molar mass, not a printed value. Read-outs that look alike come from different tables or passages of the source.

How the values were obtained:
E. coli B90 = assay: Antibacterial assay, standard microtitration (MIC); format: cell-based; conditions: Gram negative; for MIC: Escherichia coli, B90, read-out: Minimum Inhibitory Concentrations E. coli B90
Protocol: (§1) Antibacterial assay: The compounds of the present invention were tested against an assortment of Gram negative and Gram positive organisms using standard microtitration techniques (Cohen, et al., Antimicrob. Agents Chemother., 1985;28:766; Heifetz, et al., Antimicrob. Agents Chemother., 1974;6:124).

E. coli MC4100 = assay: Antibacterial assay, standard microtitration (MIC); format: cell-based; conditions: Gram negative; for MIC: Escherichia coli, MC4100, read-out: Minimum Inhibitory Concentrations E. coli MC4100
Protocol: as §1

E. coli Tol C = assay: Antibacterial assay, standard microtitration (MIC); format: cell-based; conditions: for MIC: Escherichia coli, read-out: Minimum Inhibitory Concentrations E. coli Tol C; for Minimum Inhibitory Concentrations E. coli Tol C: Gram negative
Protocol: as §1

S. aureus 29213 = assay: Antibacterial assay, standard microtitration (MIC); format: cell-based; conditions: Gram positive; for MIC: Staphylococcus aureus, 29213, read-out: Minimum Inhibitory Concentrations S. aureus 29213
Protocol: as §1

S. pyogenes C203 = assay: Antibacterial assay, standard microtitration (MIC); format: cell-based; conditions: Gram positive; for MIC: Streptococcus pyogenes, C203, read-out: Minimum Inhibitory Concentrations S. pyogenes C203
Protocol: as §1

E. coli gyrase = molecular target: T1, E. coli gyrase (Escherichia coli, UniProt P0AES4+P0AES6); assay: DNA gyrase supercoiling inhibition assay; format: biochemical
T1 construct: purchased Lucent, Ltd., Leicester, UK
T1 sequence (P0AES4 whole entry, one chain of several): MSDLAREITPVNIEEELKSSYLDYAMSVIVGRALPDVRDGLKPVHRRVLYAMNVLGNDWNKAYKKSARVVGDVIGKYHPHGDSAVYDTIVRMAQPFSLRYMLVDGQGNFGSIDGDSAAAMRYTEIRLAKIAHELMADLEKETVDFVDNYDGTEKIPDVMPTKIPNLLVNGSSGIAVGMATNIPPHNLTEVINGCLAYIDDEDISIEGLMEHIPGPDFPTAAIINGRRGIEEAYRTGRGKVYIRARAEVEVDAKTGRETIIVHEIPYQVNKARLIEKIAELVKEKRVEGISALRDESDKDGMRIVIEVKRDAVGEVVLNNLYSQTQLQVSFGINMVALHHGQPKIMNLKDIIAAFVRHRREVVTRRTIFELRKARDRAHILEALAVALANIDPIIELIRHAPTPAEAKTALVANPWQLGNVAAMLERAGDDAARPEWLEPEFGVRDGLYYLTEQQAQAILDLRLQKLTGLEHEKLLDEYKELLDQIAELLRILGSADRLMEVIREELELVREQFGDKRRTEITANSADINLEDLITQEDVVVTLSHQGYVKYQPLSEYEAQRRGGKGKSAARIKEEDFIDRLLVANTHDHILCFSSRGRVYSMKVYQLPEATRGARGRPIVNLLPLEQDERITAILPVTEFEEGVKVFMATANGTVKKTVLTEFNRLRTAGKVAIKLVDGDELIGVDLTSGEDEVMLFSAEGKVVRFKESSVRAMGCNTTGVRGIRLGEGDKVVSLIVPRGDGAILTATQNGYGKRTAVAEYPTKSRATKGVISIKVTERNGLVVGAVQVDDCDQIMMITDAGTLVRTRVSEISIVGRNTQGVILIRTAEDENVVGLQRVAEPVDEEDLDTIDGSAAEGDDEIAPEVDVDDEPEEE
Protocol: DNA gyrase assay: The effects of test agents on the activity of DNA gyrase was determined by the supercoiling inhibition assay, following reaction conditions recommended by the enzyme supplier (Lucent, Ltd., Leicester, UK), as follows. Reactions were performed in buffer G (35 mM Tris-HCl (pH 7.5), 24 mM KCl, 4 mM MgCl2, 2 mM DTT, 1.8 mM spermidine, 1 mM ATP, 0.1 mg/mL bovine serum albumin). 0.25 μg of relaxed plasmid pBR322 (Lucent, Ltd., Leicester, UK) was reacted with 1 U E. coli gyrase (Lucent, Ltd., Leicester, UK), in the absence or presence of drugs, for 30 minutes at 37° C. Reactions were stopped by the addition of SDS and proteinase K to respective final concentrations of 1% and 0.5 mg/mL. After an additional 30 minutes at 37° C., one-tenth volume of 10×loading buffer (0.3% bromophenol blue, 16% Ficoll, 10 mM Na2HPO4) was added, and reactions were loaded onto agarose gels and electrophoresed as described above for intercalation assays. The concentration of drug inhibiting 50% of the supercoiling activity of DNA gyrase is given as an IC50 and recorded in Table 2.

B. subtilis RB1 = assay: Antibacterial assay, standard microtitration (MIC); format: cell-based; conditions: Bacillus subtilis, Gram positive, read-out: Minimum Inhibitory Concentrations B. subtilis RB1
Protocol: as §1

E. coli Topoisomerase IV = molecular target: T2, E. coli Topoisomerase IV (Escherichia coli, UniProt P0AFI2+P20083); assay: Topoisomerase IV k-DNA decatenation assay; format: biochemical
T2 construct: made in house; host or cells: E. coli overexpressing strains
T2 sequence (P20083 whole entry): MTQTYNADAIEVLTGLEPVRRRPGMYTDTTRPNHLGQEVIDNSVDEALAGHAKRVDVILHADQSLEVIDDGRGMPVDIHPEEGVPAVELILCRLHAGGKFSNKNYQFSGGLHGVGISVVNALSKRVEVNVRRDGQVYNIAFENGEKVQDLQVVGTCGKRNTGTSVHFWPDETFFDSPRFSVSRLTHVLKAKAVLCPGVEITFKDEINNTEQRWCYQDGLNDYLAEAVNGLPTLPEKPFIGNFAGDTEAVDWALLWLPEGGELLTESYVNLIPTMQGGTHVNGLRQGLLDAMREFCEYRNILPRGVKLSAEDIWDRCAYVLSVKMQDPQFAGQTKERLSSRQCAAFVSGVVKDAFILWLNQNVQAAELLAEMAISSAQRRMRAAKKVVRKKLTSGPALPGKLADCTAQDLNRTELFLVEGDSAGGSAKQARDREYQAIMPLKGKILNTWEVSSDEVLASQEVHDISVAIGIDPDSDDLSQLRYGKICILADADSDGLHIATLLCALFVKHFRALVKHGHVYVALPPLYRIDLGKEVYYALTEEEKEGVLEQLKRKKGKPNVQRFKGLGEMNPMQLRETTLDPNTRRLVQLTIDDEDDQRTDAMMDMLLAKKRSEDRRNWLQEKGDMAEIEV
T2 sequence (P0AFI2 whole entry): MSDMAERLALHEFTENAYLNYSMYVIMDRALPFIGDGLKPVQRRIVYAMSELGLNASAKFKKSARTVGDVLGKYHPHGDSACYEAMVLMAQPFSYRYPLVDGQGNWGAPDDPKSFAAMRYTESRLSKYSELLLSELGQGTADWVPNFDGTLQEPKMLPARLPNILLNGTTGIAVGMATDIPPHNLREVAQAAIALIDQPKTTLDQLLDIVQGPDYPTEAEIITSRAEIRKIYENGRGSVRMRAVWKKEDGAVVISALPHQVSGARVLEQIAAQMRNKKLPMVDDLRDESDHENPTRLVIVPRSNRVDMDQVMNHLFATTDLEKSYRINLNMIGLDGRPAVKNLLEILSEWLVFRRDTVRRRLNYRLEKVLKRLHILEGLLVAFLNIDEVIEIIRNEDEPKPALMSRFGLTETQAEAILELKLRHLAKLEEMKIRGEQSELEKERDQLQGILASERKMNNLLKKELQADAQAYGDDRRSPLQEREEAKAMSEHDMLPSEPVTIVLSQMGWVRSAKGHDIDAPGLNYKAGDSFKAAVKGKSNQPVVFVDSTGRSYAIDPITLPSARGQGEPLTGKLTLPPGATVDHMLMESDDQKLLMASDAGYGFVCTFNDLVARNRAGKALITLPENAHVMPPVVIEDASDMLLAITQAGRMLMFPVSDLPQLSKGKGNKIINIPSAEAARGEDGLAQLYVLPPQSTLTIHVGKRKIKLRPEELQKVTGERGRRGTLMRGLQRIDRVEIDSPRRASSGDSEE
Protocol: Topoisomerase IV assay: Topoisomerase IV was purified from E. coli overexpressing strains, and the compounds were assayed according to literature conditions (Journal of Biological Chemistry, 1993;268(32):24481). The k-DNA decatenation assay was used. Briefly, reactions were performed in buffer R (40 mM Tris-HCl (pH 7.5),6 mM MgCl2, 10 mM DTT, 100 mM potassium glutamate, 40 μM ATP, 50 μg/mL bovine serum albumin, 10 mM NaCl). Two-tenths microgram of kinetoplast DNA (k-DNA; TopoGen, Columbus, Ohio) was incubated with 5 ng of E. coli Topoisomerase IV in the presence or absence of test compounds for 10 minutes at 37° C. Subsequently, one-tenth volume of 10×gel loading buffer (0.3% bromophenol blue, 16% Ficoll, 10 mM Na2HPO4) was added, and samples were loaded onto horizontal 0.8% agarose gels prepared with TBE buffer and containing 0.05 μg/mL of ethidium bromide. Electrophoresis was at 70 V for 2 to 4 hours. Gels were then examined by exposure to UV light. The concentration of drug inhibiting 50% of the decantenating activity of Topoisomerase IV is given as an IC50 and recorded in Table 2.

[1] = supercoiling of relaxed pBR322, 30 minutes at 37° C., read-out: Gyrase IC50
[2] = k-DNA decatenation, 10 minutes at 37° C., read-out: DNA TopIV IC50

| Structure (SMILES) | MIC (E. coli B90) [µg/mL] | MIC (E. coli MC4100) [µg/mL] | MIC (E. coli Tol C) [µg/mL] | MIC (S. aureus 29213) [µg/mL] | MIC (S. pyogenes C203) [µg/mL] | pIC50 (E. coli gyrase; [1]) | MIC (B. subtilis RB1) [µg/mL] | pIC50 (E. coli gyrase) | pIC50 (E. coli Topoisomerase IV) | Minimum Inhibitory Concentrations E. coli B90 (E. coli B90) [µg/mL] | Minimum Inhibitory Concentrations E. coli MC4100 (E. coli MC4100) [µg/mL] | Minimum Inhibitory Concentrations E. coli Tol C (E. coli Tol C) [µg/mL] | Minimum Inhibitory Concentrations S. aureus 29213 (S. aureus 29213) [µg/mL] | Minimum Inhibitory Concentrations S. pyogenes C203 (S. pyogenes C203) [µg/mL] | pIC50 (E. coli Topoisomerase IV; [2]) |
| --- | --- | --- | --- | --- | --- | --- | --- | --- | --- | --- | --- | --- | --- | --- | --- |
| O=c1c2cc(F)c(N3CCCC3)cc2n(-c2ccc(O)cc2)c(=O)n1O [Example 14, 1-(4-Hydroxyphenyl)-6-fluoro-3-hydroxy-7-pyrrolidin-yl-1-1H-quinazoline-2,4-dione] | 4 (≈ 11.2 µM) | 64 (≈ 179 µM) | 1 (≈ 2.8 µM) | 32 (≈ 89.6 µM) | 64 (≈ 179 µM) | 4.34 |  |  |  |  |  |  |  |  |  |
| O=c1c2cc(F)c(N3CCCC3)nc2n(-c2ccc(F)cc2)c(=O)n1O [Example 56, 6-Fluoro-1-(4-fluorophenyl)-3-hydroxy-7-pyrrolidin-1-yl-1H-pyrido[2,3-d]pyrimidine-2,4-dione] | 0.13 (≈ 0.361 µM) | 16 (≈ 44.4 µM) | 0.13 (≈ 0.361 µM) | 8 (≈ 22.2 µM) | 8 (≈ 22.2 µM) |  |  |  |  |  |  |  |  |  |  |
| CCn1c(=O)n(O)c(=O)c2cc(F)c(N3CCC(N)C3)nc21.O=C(O)C(F)(F)F (stereo not drawn) [Example 36, 7-(3-Aminopyrrolidin-1-yl)-1-ethyl-6-fluoro-3-hydroxy-1H-pyrido[2,3-d]pyrimidine-2,4-dione, trifluoroacetate] | 2 | 8 | 2 | 64 | 32 |  |  |  |  |  |  |  |  |  |  |
| CCn1c(=O)n(O)c(=O)c2cc(F)c(N3CCNCC3)cc21 [Example 7, 1-Ethyl-6-fluoro-3-hydroxy-7-piperazin-1-yl-1H-quinazoline-2,4-dione] | 4 (≈ 13 µM) | 16 (≈ 51.9 µM) | 8 (≈ 25.9 µM) | > 64 | > 64 |  | > 64 | < 4.00 | 4.31 |  |  |  |  |  |  |
| NC1C2CN(c3c(F)cc4c(=O)n(O)c(=O)n5c4c3SCC5)CC12.O=C(O)C(F)(F)F (stereo not drawn) [Example 46, (1α,5α,6α)9-(6-Amino-3-aza-bicyclo[3.1.0]hex-3-yl)-8-fluoro-5-hydroxy-2,3-dihydro-1-thia-3α,5-diaza-phenalene-4,6-dione, trifluoroacetate] |  |  |  |  |  | 5.08 |  |  |  | 2.0 | 8.0 | 1.0 | >64 | 32 |  |
| CCn1c(=O)n(O)c(=O)c2cc(F)c(N3CCC(CN)C3)cc21.Cl (stereo not drawn) [Example 6, 7-(3-Aminomethyl-pyrrolidin-1-yl)-1-ethyl-6-fluoro-3-hydroxy-1H-quinazoline-2,4-dione, hydrochloride] | 8 | 64 | 8 | 64 | 16 |  | 32 | 5.26 | 4.23 |  |  |  |  |  |  |
| N[C@@H]1[C@H]2CN(c3cc4c(cc3F)c(=O)n(O)c(=O)n4C3CC3)C[C@@H]12.O=C(O)C(F)(F)F [Example 42, (1α, 5α, 6α)7-(6-Amino-3-aza-bicyclo[3.1.0]hex-3-yl)-1-cyclopropyl-6-fluoro-3-hydroxy-1H-quinazoline-2,4-dione, trifluoroacetate] |  |  |  |  |  | 6.12 |  |  |  | 0.25 | 1.0 | 0.25 | 4.0 | 2.0 | 4.55 |
| O=c1c2cc(F)c(N3CCCC3)cc2n(-c2cccc(F)c2)c(=O)n1O [Example 28, 1-(3-Fluorophenyl)-6-fluoro-3-hydroxy-7-pyrrolidin-1-yl-1H-quinazoline-2,4-dione] | 2 (≈ 5.57 µM) | > 64 | 2 (≈ 5.57 µM) | 32 (≈ 89.1 µM) | 32 (≈ 89.1 µM) |  |  |  |  |  |  |  |  |  |  |
| O=c1c2cc(F)c(N3CCCC3)nc2n(C2CC2)c(=O)n1O [Example 32, 1-Cyclopropyl-6-fluoro-3-hydroxy-7-pyrrolidin-1-yl-1H-pyrido[2,3-d]pyrimidine-2,4-dione] | 0.5 (≈ 1.63 µM) | > 64 | 0.5 (≈ 1.63 µM) | 8 (≈ 26.1 µM) | 64 (≈ 209 µM) | 5.19 |  |  |  |  |  |  |  |  | < 4.00 |
| O=c1c2cc(F)c(N3CCCC3)cc2n(C2CC2)c(=O)n1O [Example 38, 1-Cyclopropyl-6-fluoro-3-hydroxy-7-(pyrrolidin-1-yl)-1H-quinazoline-2,4-dione] | 0.1 (≈ 0.328 µM) | 8 (≈ 26.2 µM) | 0.1 (≈ 0.328 µM) | 1 (≈ 3.28 µM) | 16 (≈ 52.4 µM) | 5.18 | 0.25 (≈ 0.819 µM) |  |  |  |  |  |  |  | 4.24 |
| CCn1c(=O)n(O)c(=O)c2cc(F)c(N3CCC(C)(CN)C3)cc21.Cl (stereo not drawn) [Example 9, 7-(3-Aminomethyl-3-methyl-pyrrolidin-1-yl)-1-ethyl-6-fluoro-3-hydroxy-1H-quinazoline-2,4-dione, hydrochloride] | 4 | 16 | 2 | 16 | 8 |  | 16 | 4.81 | < 4.00 |  |  |  |  |  |  |
| CCn1c(=O)n(O)c(=O)c2cc(F)c(N3CCN(C)CC3)cc21 [Example 2, 1-Ethyl-6-fluoro-3-hydroxy-7-(4-methyl-piperazin-1-yl)-1H-quinazoline-2,4-dione] | 4 (≈ 12.4 µM) | 16 (≈ 49.6 µM) | 2 (≈ 6.2 µM) | > 64 | > 64 |  | 16 (≈ 49.6 µM) | 4.66 | < 4.00 |  |  |  |  |  |  |
| CCn1c(=O)n(O)c(=O)c2cc(F)c(N3CCCC3)cc21 [Example 1, 1-Ethyl-6-fluoro-3-hydroxy-7-pyrrolidin-1-yl-1H-quinazoline-2,4-dione] | 2 (≈ 6.82 µM) | > 64 | 1 (≈ 3.41 µM) | 32 (≈ 109 µM) | 32 (≈ 109 µM) |  | 4 (≈ 13.6 µM) |  |  |  |  |  |  |  |  |
| O=c1c2cc(F)c(N3CCCC3)c3c2n(c(=O)n1O)CCS3 [Example 44, 8-Fluoro-5-hydroxy-9-pyrrolidin-1-yl-2,3-dihydro-1-thia-3α,5-diaza-phenalene-4,6-dione] | 1 (≈ 3.09 µM) | > 64 | 1 (≈ 3.09 µM) | 4 (≈ 12.4 µM) | 32 (≈ 99 µM) | 4.92 |  |  |  |  |  |  |  |  | < 4.00 |
| Cl.NC1CCN(c2cc3c(cc2F)c(=O)n(O)c(=O)n3-c2ccc(F)cc2)C1 (stereo not drawn) [Example 17, 1-(4-Fluorophenyl)-6-fluoro-3-hydroxy-7-(3-aminopyrrolidin-1-yl)-1H-quinazoline-2,4-dione, hydrochloride] | 64 | > 64 | 32 | > 64 | 32 |  |  |  |  |  |  |  |  |  |  |
| COc1cccc(-n2c(=O)n(O)c(=O)c3cc(F)c(N4CCCC4)cc32)c1 [Example 23, 1-(3-Methoxyphenyl)-6-fluoro-3-hydroxy-7-pyrrolidin-1-yl-1H-quinazoline-2,4-dione] | 32 (≈ 86.2 µM) | > 64 | 32 (≈ 86.2 µM) | 32 (≈ 86.2 µM) | 32 (≈ 86.2 µM) | 4.44 |  |  |  |  |  |  |  |  | < 4.00 |
| NC1CCN(c2cc3c(cc2F)c(=O)n(O)c(=O)n3C2CC2)C1 (stereo not drawn) [Example 39, 7-(3-Amino-pyrrolidin-1-yl)-1-cyclopropyl-6-fluoro-3-hydroxy-1H-quinazoline-2,4-dione] | 0.3 (≈ 0.937 µM) | 1 (≈ 3.12 µM) | 0.25 (≈ 0.78 µM) | 32 (≈ 99.9 µM) | 4 (≈ 12.5 µM) | 5.62 | 2 (≈ 6.24 µM) |  |  |  |  |  |  |  | 5.05 |
| CCn1c(=O)n(O)c(=O)c2cc(F)c(N3CCCCC3)cc21 [Example 4, 1-Ethyl-6-fluoro-3-hydroxy-7-piperidin-1-yl-1H-quinazoline-2,4-dione] | 16 (≈ 52.1 µM) | > 64 | 16 (≈ 52.1 µM) | 64 (≈ 208 µM) | 64 (≈ 208 µM) |  | 8 (≈ 26 µM) |  |  |  |  |  |  |  |  |
